Measured values as given in PubChem BioAssay AID250 (DTP/NCI, 2004).
Several values for one entry are separate records, joined by “and”; a condition that tells them apart may be missing. Equal entries are not always repeated. Inconclusive results and toxic doses are left out.

Test system: BDF1 mice, L1210 leukemia sc, survival T/C
Test: NCI In Vivo Anticancer Drug Screen. Data for tumor model L1210 Leukemia (subcutaneous) in B6D2F1 (BDF1) mice
Conditions: endpoint: median survival time, higher = longer survival
Procedure, shortened: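 Expressed as T/C: measurement in compound-treated, tumor-bearing mice relative to vehicle-treated control mice, based on survival or tumor size.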

[1] = dose: 65.0 mg/kg/injection, schedule: Q01DX Z (sc), vehicle: saline
[2] = dose: 300.0 mg/kg/injection, schedule: Q01DX Z (sc), vehicle: methylcellulose (MC)
[3] = dose: 500.0 mg/kg/injection, schedule: Q01DX Z (sc), vehicle: methylcellulose (MC)
[4] = dose: 108.0 mg/kg/injection, schedule: Q01DX Z (sc), vehicle: methylcellulose (MC)

SMILES: O=c1[nH]c(=O)n(C2CC(O)C(CO)O2)cc1F (stereo not drawn)
- T/C (dose: 4.0 mg/kg/injection, schedule: Q01DX Z (sc), vehicle: saline): 100 % of control
- T/C (dose: 5.0 mg/kg/injection, schedule: Q01DX009 (ip), vehicle: water): 100 % of control
- T/C (dose: 5.0 mg/kg/injection, schedule: Q01DX009 (sc), vehicle: water): 101 % of control
- T/C (dose: 8.0 mg/kg/injection, schedule: Q01DX Z (sc), vehicle: saline): 100 % of control
- T/C (dose: 10.0 mg/kg/injection, schedule: Q01DX009 (ip), vehicle: water): 97 % of control
- T/C (dose: 10.0 mg/kg/injection, schedule: Q01DX009 (sc), vehicle: water): 98 % of control
- T/C (dose: 16.0 mg/kg/injection, schedule: Q01DX Z (sc), vehicle: saline): 111 % of control
- T/C (dose: 20.0 mg/kg/injection, schedule: Q01DX009 (ip), vehicle: water): 101 % of control
- T/C (dose: 20.0 mg/kg/injection, schedule: Q01DX009 (sc), vehicle: water): 104 % of control
- T/C (dose: 23.0 mg/kg/injection, schedule: Q01DX Z (sc), vehicle: saline): 100 % of control
- T/C (dose: 23.3 mg/kg/injection, schedule: Q01DX Z (sc), vehicle: saline): 104 % of control
- T/C (dose: 32.0 mg/kg/injection, schedule: Q01DX Z (sc), vehicle: saline): 111 % of control
- T/C (dose: 38.9 mg/kg/injection, schedule: Q01DX Z (sc), vehicle: saline): 91 % of control
- T/C (dose: 39.0 mg/kg/injection, schedule: Q01DX Z (sc), vehicle: saline): 100 % of control
- T/C (dose: 40.0 mg/kg/injection, schedule: Q01DX009 (ip), vehicle: water): 110 % of control
- T/C (dose: 40.0 mg/kg/injection, schedule: Q01DX009 (sc), vehicle: water): 121 % of control
- T/C (dose: 50.0 mg/kg/injection, schedule: Q01DX009 (sc), vehicle: water): 100 % of control
- T/C (dose: 64.0 mg/kg/injection, schedule: Q01DX Z (sc), vehicle: saline): 105 % of control
- T/C (dose: 64.8 mg/kg/injection, schedule: Q01DX Z (sc), vehicle: saline): 100 % of control
- T/C [1]: 100 % of control and 105 % of control
- T/C (dose: 80.0 mg/kg/injection, schedule: Q01DX009 (ip), vehicle: water): 124 % of control
- T/C (dose: 100.0 mg/kg/injection, schedule: Q01DX009 (sc), vehicle: water): 110 % of control
- T/C (dose: 200.0 mg/kg/injection, schedule: Q01DX009 (sc), vehicle: water): 150 % of control
- T/C (dose: 256.0 mg/kg/injection, schedule: Q01DX Z (sc), vehicle: saline): 161 % of control
- T/C (dose: 400.0 mg/kg/injection, schedule: Q01DX009 (sc), vehicle: water): 153 % of control

SMILES: Nc1ccc(O)cc1
- T/C (dose: 130.0 mg/kg/injection, schedule: Q01DX Z (sc), vehicle: other): 95 % of control
- T/C (dose: 216.0 mg/kg/injection, schedule: Q01DX Z (sc), vehicle: other): 116 % of control
- T/C [2]: 112 % of control
- T/C [3]: 112 % of control
- T/C (dose: 600.0 mg/kg/injection, schedule: Q01DX Z (sc), vehicle: other): 87 % of control

SMILES: O=c1ccn(C2OC(CO)C(O)C2O)c(=O)[nH]1 (stereo not drawn)
- T/C [1]: 100 % of control
- T/C (dose: 108.0 mg/kg/injection, schedule: Q01DX Z (sc), vehicle: saline): 100 % of control
- T/C (dose: 180.0 mg/kg/injection, schedule: Q01DX Z (sc), vehicle: saline): 95 % of control and 111 % of control
- T/C (dose: 300.0 mg/kg/injection, schedule: Q01DX Z (sc), vehicle: saline): 90 % of control and 100 % of control
- T/C (dose: 500.0 mg/kg/injection, schedule: Q01DX Z (sc), vehicle: saline): 90 % of control and 100 % of control
- T/C (dose: 833.0 mg/kg/injection, schedule: Q01DX Z (sc), vehicle: saline): 100 % of control
- T/C (dose: 1388.0 mg/kg/injection, schedule: Q01DX Z (sc), vehicle: saline): 100 % of control

SMILES: CC/C(=C(/CC)c1ccc(O)cc1)c1ccc(O)cc1
- T/C [4]: 100 % of control
- T/C [2]: 100 % of control

SMILES: CC(=O)c1ccc(NC(=O)N(CCCl)N=O)cc1
- T/C (dose: 39.0 mg/kg/injection, schedule: Q01DX Z (sc), vehicle: carboxymethylcellulose (CMC)): 183 % of control
- T/C (dose: 65.0 mg/kg/injection, schedule: Q01DX Z (sc), vehicle: carboxymethylcellulose (CMC)): 211 % of control

SMILES: CC(C)NNC(=O)c1ccncc1
- T/C (dose: 200.0 mg/kg/injection, schedule: Q01DX001 (sc), vehicle: saline): 105 % of control and 106 % of control
- T/C (dose: 400.0 mg/kg/injection, schedule: Q01DX001 (sc), vehicle: saline): 100 % of control and 103 % of control

SMILES: c1ccc2[nH]cnc2c1
- T/C (dose: 14.0 mg/kg/injection, schedule: Q01DX Z (sc), vehicle: other): 100 % of control
- T/C (dose: 300.0 mg/kg/injection, schedule: Q01DX Z (sc), vehicle: other): 100 % of control
- T/C (dose: 500.0 mg/kg/injection, schedule: Q01DX Z (sc), vehicle: other): 100 % of control

SMILES: Nc1nc(=S)c2ncn(C3CC(O)C(CO)O3)c2[nH]1 (stereo not drawn)
- T/C (dose: 9.0 mg/kg/injection, schedule: Q02DX005 (sc), vehicle: saline): 160 % of control
- T/C (dose: 12.5 mg/kg/injection, schedule: Q02DX005 (sc), vehicle: saline): 177 % of control
- T/C (dose: 18.0 mg/kg/injection, schedule: Q02DX005 (sc), vehicle: saline): 162 % of control
- T/C (dose: 25.0 mg/kg/injection, schedule: Q02DX005 (sc), vehicle: saline): 177 % of control
- T/C (dose: 37.0 mg/kg/injection, schedule: Q02DX005 (sc), vehicle: saline): 152 % of control
- T/C (dose: 50.0 mg/kg/injection, schedule: Q01DX009 (sc), vehicle: saline): 100 % of control and 103 % of control
- T/C (dose: 50.0 mg/kg/injection, schedule: Q02DX005 (sc), vehicle: saline): 177 % of control
- T/C (dose: 100.0 mg/kg/injection, schedule: Q01DX009 (sc), vehicle: saline): 105 % of control and 108 % of control
- T/C (dose: 100.0 mg/kg/injection, schedule: Q02DX005 (sc), vehicle: saline): 150 % of control
- T/C (dose: 150.0 mg/kg/injection, schedule: Q02DX005 (sc), vehicle: saline): 120 % of control
- T/C (dose: 200.0 mg/kg/injection, schedule: Q01DX009 (sc), vehicle: saline): 122 % of control
- T/C (dose: 400.0 mg/kg/injection, schedule: Q01DX009 (sc), vehicle: saline): 155 % of control
- T/C (dose: 600.0 mg/kg/injection, schedule: Q02DX005 (sc), vehicle: saline): 158 % of control

SMILES: Cn1cc(NC(=O)c2cc(NC(=O)CN=C(N)N)cn2C)cc1C(=O)NCCC(=N)N
- T/C (dose: 6.0 mg/kg/injection, schedule: Q01DX Z (sc), vehicle: methylcellulose (MC)): 100 % of control
- T/C (dose: 12.0 mg/kg/injection, schedule: Q01DX Z (sc), vehicle: methylcellulose (MC)): 100 % of control
- T/C (dose: 24.0 mg/kg/injection, schedule: Q01DX Z (sc), vehicle: methylcellulose (MC)): 100 % of control

SMILES: CN(Cc1cnc2nc(N)nc(N)c2n1)c1c(Cl)cc(C(=O)NC(CCC(=O)O)C(=O)O)cc1Cl (stereo not drawn)
- T/C (dose: 14.0 mg/kg/injection, schedule: Q01DX Z (sc), vehicle: sodium bicarbonate): 245 % of control
- T/C (dose: 23.0 mg/kg/injection, schedule: Q01DX Z (sc), vehicle: sodium bicarbonate): 259 % of control
- T/C (dose: 39.0 mg/kg/injection, schedule: Q01DX Z (sc), vehicle: sodium bicarbonate): 427 % of control
- T/C (dose: 100.0 mg/kg/injection, schedule: Q01DX Z (sc), vehicle: other): 154 % of control

SMILES: CCN(CC)CCNc1ccc(C)c2sc3ccccc3c(=O)c12 (tested in a mixture with another compound)
- T/C (dose: 39.0 mg/kg/injection, schedule: Q01DX Z (sc), vehicle: methylcellulose (MC)): 100 % of control
- T/C (dose: 65.0 mg/kg/injection, schedule: Q01DX Z (sc), vehicle: methylcellulose (MC)): 100 % of control
- T/C [4]: 100 % of control
- T/C (dose: 180.0 mg/kg/injection, schedule: Q01DX Z (sc), vehicle: methylcellulose (MC)): 100 % of control
- T/C (dose: 200.0 mg/kg/injection, schedule: Q01DX Z (sc), vehicle: methylcellulose (MC)): 111 % of control

SMILES: CN(C)Nc1ncnc2nc[nH]c12
- T/C (dose: 8.4 mg/kg/injection, schedule: Q01DX Z (sc), vehicle: water): 100 % of control
- T/C (dose: 14.0 mg/kg/injection, schedule: Q01DX Z (sc), vehicle: water): 100 % of control
- T/C (dose: 23.0 mg/kg/injection, schedule: Q01DX Z (sc), vehicle: water): 111 % of control
- T/C (dose: 39.0 mg/kg/injection, schedule: Q01DX Z (sc), vehicle: water): 105 % of control
- T/C (dose: 65.0 mg/kg/injection, schedule: Q01DX Z (sc), vehicle: water): 111 % of control
- T/C (dose: 108.0 mg/kg/injection, schedule: Q01DX Z (sc), vehicle: water): 100 % of control

SMILES: CCC(C)SC1=NC=NC2=NC=NC21 (stereo not drawn)
- T/C (dose: 38.9 mg/kg/injection, schedule: Q01DX Z (sc), vehicle: methylcellulose (MC)): 109 % of control
- T/C [4]: 150 % of control
- T/C [3]: 100 % of control
- T/C (dose: 833.0 mg/kg/injection, schedule: Q01DX Z (sc), vehicle: methylcellulose (MC)): 100 % of control

SMILES: CCCCN(CCCC)P(=O)(N1CC1)N1CC1
- T/C (dose: 1.8 mg/kg/injection, schedule: Q01DX Z (sc), vehicle: saline): 110 % of control
- T/C (dose: 3.0 mg/kg/injection, schedule: Q01DX Z (sc), vehicle: saline): 110 % of control
